Laboratory results: patent US11541029B2, “High penetration compositions and their applications” (Techfields Pharma Co., Ltd., priority 2008, dated 2023)

Experiments:
spinal cord injuries = assay: Spinal cord injury in paralyzed rats; type: in vivo; conditions: 5 mg in 0.2 ml water on area of injury twice per day for 1 months, n=10
Experimental: A paralyzed rat was produced by anesthetizing with chloral hydrate first, and then hitting at its spinal cord to induce spinal cord injuries. On the next day, 20 completely paralyzed rats were divided into 2 groups. […] In group B (n=10), 5 mg of diethylaminopropyl acetylsalicylate.HCl in 0.2 ml of pure water was applied to the area of injury (˜2×3 cm^2) twice per day for 1 months. After the treatment, all rats (10/10) in group A were still completely paralyzed. While all rats (10/10) in group B could walk. 4 Rats of group B acted completely normal and the other 6 rats walked more slowly and less confidently than before their injury.

Tg2576 mouse model of AD = assay: Anti-Alzheimer disease activity in Tg2576 mice; type: in vivo
Text: For many years, efforts have been focused on the development of inhibitors of β-amyloid (Aβ) formation and its related neurotoxic effects. To determine the effect of diethylaminopropyl acetylsalicylate. HCl on in vivo AD accumulation, we administered transdermally diethylaminopropyl acetylsalicylate. […] Three-month-old female transgenic mice overexpressing the human APP gene containing the Swedish mutation that causes familial AD (Tg2576 line) were used for testing the effects of diethylaminopropyl acetylsalicylate.HCl in vivo. 20 Tg2576 mice were divided into 2 groups. […] In group B (n=10), 50 mg/kg of diethylaminopropyl acetylsalicylate.HCl in 0.2 ml of pure water was applied to the back of mouse once per day for 2 months. Then the animals were killed and their brains were removed for analysis. For Aβ analysis, hemibrains were dounce homogenized in 70% formic acid at 150 mg tissue/ml formic acid solution. Homogenates were transferred to a chilled ultracentrifuge and were then spun at 100,000 g for 1 h at 4° C. Supernatants were collected and neutralized with formic acid neutralization buffer (1.0 M Tris base, 0.5 M NaH2PO4, and 0.05% NaN3; 1:20) for Aβ quantitation by ELISA. Aβ40 and Aβ42 were assayed by ELISA. Four individual experiments were performed. To compare across studies, the values for an individual study were normalized using the values obtained for the control animals included in each study. Values represent the mean±SE for the n number shown, after normalizing.
To determine if the transdermal administration of diethylaminopropyl acetylsalicylate.HCl has beneficial functional consequences, we tested 2 months of diethylaminopropyl acetylsalicylate.HCl (50 mg/kg) in the transgenic model for Alzheimer's disease in which mice develop learning deficits as amyloid accumulates. […] In the diethylaminopropyl acetylsalicylate.HCl (50 mg/kg) treated group, all mice performed superbly on the radial-arm water-maze test of working memory and untreated transgenic mice show memory deficits. […] This therapeutic approach can thus prevent and treat Alzheimer's dementia.

[1] = tested on: carrageenin-induced swelling of rat hind paw; assay: Anti-inflammatory activity, carrageenin paw swelling; type: in vivo, rats; conditions: transdermal or oral administrations
[2] = tested on: rats given sterilized E. coli suspension as a pyrogen; assay: Antipyretic activity of ibuprofen and its HPC (Study A); type: in vivo; conditions: 20 mg/kg, oral administration
[3] = tested on: autologous blood clots injected in femoral vein (pulmonary thrombus); assay: Anti-thrombosis activity, autologous blood clots in rabbits; type: in vivo, Chinese White rabbits; conditions: 50 mg/kg topically to the back twice per day, 5 days
Experimental: Eighteen Chinese White rabbits weighing between 3.0 and 3.5 kg (aged 6-7 months) were selected and divided into three groups (control, P-1 and […] groups, n=6). One hour before the experiment, thrombi were made by aspirating venous blood (1 ml) into a sterilized bottle to clot. To avoid fragmentation and slow lysis, the autologous blood clots were stabilized in temperature-controlled (70° C.) distilled water for 10 min. After anesthesia, the femoral veins were exposed and distally isolated, and autologous blood clots (0.05 g/kg) were injected through an indwelling catheter (20GA), which had been placed in the femoral vein isolated earlier. 50 mg/kg of diethylaminoethyl acetylsalicylate.HCl salt (P-1, 10% in 25% ethanol) and diethylaminoethyl acetylsalicylsalicylate.HCl salt (P-59, 10% in 25% ethanol) were topically applied to the back of the rabbits twice per day. After 5 days, rabbits were euthanized with an excessive intravenous injection of sodium amobarbital (60 mg/kg). The lungs and hearts were isolated to observe whether thrombi were present in the pulmonary arteries. The lungs were immersed in 10% formalin for 24 h. Consecutive transverse sections along the obstructed pulmonary arteries were paraffin-embedded and stained with hematoxylin-eosine. […]

[4] = tested on: GK rats (SLAC/GK, type 2 diabetes); assay: Anti-diabetes (type II) activity of HPCs of NSAIAs in GK rats; type: in vivo; conditions: 30 mg/kg transdermally once per day, no fasting
Experimental: (§1) A HPC in the present disclosure lowered blood glucose levels in rat models (SLAC/GK, type 2 diabetes, n=7). 30 mg/kg of 8% diethylaminoethyl acetylsalicylate.HCl salt (P-1, in 25% ethanol); 4-acetamidophenyl salicylyldimethylaminobutyrate.HCl (P-6, in 25% ethanol), diethylaminoethyl 5-(2,4-difluorophenyl)acetylsalicylate.5-(2,4-difluorophenyl)acetylsalicylic acid salt (P-8, in 25% ethanol), diethylaminoethyl salicylsalicylate.HCl salt (P-9, in 25% ethanol), diethylaminoethyl salicylate.AcOH(P-10, in 25% ethanol), diethylaminoethyl 5-acetamido-acetylsalicylate.HCl(P-58, in 25% ethanol), diethylaminoethyl acetylsalicylsalicylate. HCl salt (P-59, in 25% ethanol), diethylaminoethyl acetylsalicylsalicylsalicylate. HCl salt (P-60, in 25% ethanol) were administered transdermally to the backs (6 cm^2, fur was shaved) of GK rats (SLAC/GK, 14-16 weeks old) and normal SD rats (SLAC/SD, 14-16 weeks old) once per day (at 8 am) for 6 weeks.
(§2) The blood glucose levels were measured once every 3 days at 4:30 pm (no fasting) from the third week to the sixth week as shown in Table 10a and 10b. […] Moreover, the blood glucose levels of the rats stayed at normal level (6-9 mmol/L, no fasting) after the treatment was stopped for 40 days.

normal SD rats (SLAC/SD) = assay: Blood glucose in normal SD rats treated with HPCs of NSAIAs; type: in vivo; conditions: 30 mg/kg transdermally once per day, no fasting
Experimental: as §1, §2

SLAC/DB/DB obese mice = assay: Blood glucose and blood lipid levels in DB/DB mice; type: in vivo; conditions: 30 mg/kg transdermally once per day
Experimental: HPCs in the present disclosure lowered blood glucose levels and blood lipid levels in mice models (SLAC/DB/DB, obese mice, n=7). 30 mg/kg of 8% diethylaminoethyl acetylsalicylate.HCl salt (P-1, in 25% ethanol); 4-acetamidophenyl salicylyldimethylaminobutyrate.HCl (P-6, in 25% ethanol), diethylaminoethyl 5-(2,4-difluorophenyl)acetylsalicylate.5-(2,4-difluorophenyl)acetylsalicylic acid salt (P-8, in 25% ethanol), diethylaminoethyl salicylsalicylate.HCl salt (P-9, in 25% ethanol), diethylaminoethyl salicylate.AcOH(P-10, in 25% ethanol), diethylaminoethyl 5-acetamido-acetylsalicylate.HCl(P-58, in 25% ethanol), diethylaminoethyl acetylsalicylsalicylate.HCl salt (P-59, in 25% ethanol), diethylaminoethyl acetylsalicylsalicylsalicylate.HCl salt (P-60, in 25% ethanol) were administered transdermally to the backs (4 cm^2,fur was shaved) of DB/DB mice(SLAC/DB/DB, 10-12 weeks old) once per day (at 8 am) for 5 weeks. The blood glucose levels were measured once per week and blood lipid levels were measured once every other week.

[5] = tested on: SLAC:NOD-IDDM, type 1 diabetes; assay: Anti-diabetes (type I) activity of HPCs of NSAIAs; type: in vivo, mice
Text: 10% aqueous solution of diethylaminoethyl acetylsalicylate.acetylsalicylic acid salt (P-1, […]); 4-acetamidophenyl salicylyldimethylaminobutyrate. HCl (P-6), diethylaminoethyl 5-(2,4-difluorophenyl)acetylsalicylate.5-(2,4-difluorophenyl)acetylsalicylic acid salt (P-8), diethylaminoethyl salicylsalicylate.AcOH(P-9), diethylaminoethyl 5-acetamido-acetylsalicylate. HCl (P-58), diethylaminoethyl 2-(ρ-isobutylphenyl) propionate.citric acid (P-59), diethylaminoethyl acetylsalicylsalicylate. acetylsalicylsalicylsalicylic acid salt (P-60) (equal to of 20 mg/kg of NSAIAs) were administered transdermally to the shaved back (about 1.5 cm^2) of mice twice per day (at 8 am and 5 pm) for 7 weeks.
The blood glucose levels were measured once every 3 days at 4:30 pm (no fasting) from the fourth week to the seventh week as shown in Table 11.

CCN(CC)CCCOC(=O)c1ccccc1OC(C)=O.Cl [diethylaminopropyl acetylsalicylate.HCl]
rats that acted completely normal after the treatment (spinal cord injuries): 4
rats that could walk after the treatment (spinal cord injuries): 10/10
reduction in Aβ42 concentration in the brain (Tg2576 mouse model of AD; 50 mg/kg transdermally once per day for 2 months): 70%
Aβ42 concentration (Tg2576 mouse model of AD; 50 mg/kg transdermally once per day for 2 months, ELISA): 2.3 ± 0.3 pmol/g tissue
cognitive performance, radial-arm water-maze test of working memory (Tg2576 mouse model of AD; 50 mg/kg, 2 months): performed as well as nontransgenic mice

CCN(CC)CCOC(=O)C(C)c1ccc(CC(C)C)cc1 (centres unmarked) [HPC of ibuprofen, diethylaminoethyl 2-(ρ-isobutylphenyl) propionate]
anti-inflammatory activities, times stronger than parent drug ibuprofen [1]: more than 5 times
antipyretic effect [2]: almost the same effect as 100 mg/kg of ibuprofen

CCN(CC)CCOC(=O)c1ccccc1OC(=O)c1ccccc1OC(C)=O.Cl [P-59, diethylaminoethyl acetylsalicylsalicylate. HCl salt]
lung tissue and vascular walls (histology) [3]: both lung tissue and vascular walls were normal
blood glucose, Average (Week 2-5) [4]: 8.2 ± 2.7 mmol/L
blood glucose, Day 1 [4]: 16.8 ± 3.0 mmol/L
blood glucose, Average (Week 2-5) (normal SD rats (SLAC/SD)): 5.8 ± 1.0 mmol/L
blood glucose, Day 1 (normal SD rats (SLAC/SD)): 5.7 ± 1.3 mmol/L
Cholesterol (total), Day 1 (SLAC/DB/DB obese mice): 6.6 ± 0.4 mmol/L
Cholesterol (total), Week 5 (SLAC/DB/DB obese mice): 4.7 ± 0.4 mmol/L
Triglycerides, Day 1 (SLAC/DB/DB obese mice): 4.6 ± 0.4 mmol/L
Triglycerides, Week 5 (SLAC/DB/DB obese mice): 4.6 ± 0.5 mmol/L
blood glucose, Day 1 (SLAC/DB/DB obese mice): 14.2 ± 2.2 mmol/L
blood glucose, Week 5 (SLAC/DB/DB obese mice): 8.1 ± 2.4 mmol/L
blood glucose, Baseline ([5]; equal to 20 mg/kg of NSAIAs transdermally twice per day for 7 weeks): 19.1 ± 3.2 mmol/L
blood glucose, Average ([5]; fourth week to seventh week, no fasting, equal to 20 mg/kg of NSAIAs transdermally twice per day): 8.9 ± 1.7 mmol/L
